Literature values as cited in US9290518B2, “Water soluble metal-organic frameworks (MOFs)” (Council of Scientific and Industrial Research, priority 2011, dated 2016).

Details: 25° C., 98% RH, literature

In the case of `O=C1N2CN3C(=O)N4CN5C(=O)N6CN7C(=O)N8CN9C(=O)N%10CN%11C(=O)N%12CN1C1C2N2CN%13C(=O)N(CN%14C(=O)N(CN%15C(=O)N(CN%16C(=O)N(CN%17C(=O)N(CN1C2=O)C%12C%11%17)C%10C9%16)C8C7%15)C6C5%14)C4C3%13` (stereo not shown) [cucurbit [6]uril], the proton conductivity is given as 1.1×10^−3 S cm^−1.
